Laboratory results published in patent US7723289B2, “PIF tetrapeptides” (BioIncept, LLC, priority 2003, dated 2010).
No end group written: not given here.

Key:
[1] = tested on: PBMC; experiment: FITC-labeled PIF binding to PBMC subpopulations (flow cytometry); design: species or system human; details: 0.75 to 48.19 μM, 1 h room temperature
Method: Expression of PIF-1(15) (SEQ ID NO:1), receptor following PHA induced PBMC proliferation CD-4 T cells; CD-8 T cells; NK cell and B cells (unstimulated-top); (PHA stimulated-bottom). Flow cytometry analysis of PBMC following exposure to FITC sPIF-1(15) (SEQ ID NO:13) % expression was determined in PBMC subtypes before and after exposure to 1 ug/ml PHA for 24 hours.
(§1) Human PBMC were isolated by the Ficoll method. FITC-labeled nPIF-115 (SEQ ID NO: 1) and (FITC)-labeled scrPIF-1 (SEQ ID NO:5) and match-size irrelevant peptide (FITC)-labeled negative controls negPIF-1(15) (SEQ ID NO:11), were dissolved in PBS at concentrations ranging from 0.75 to 48.19 μM, and were incubated with 500,000 lymphocytes for 1 h at room temperature. The cells were washed 6 times with PBS and resuspended in 500 μl of the same buffer. T-cells and monocytes identification was performed in independent experiments by incubation with anti-CD3 and anti-CD14 antibody-phycoerithryn (PE) labeled. nPIF-115 (SEQ ID NO: 1) binding to PBMC was determined by flow cytometry. In addition, rosettes formed by T cell-platelets were detected by flow cytometry using anti-CD3 antibody-PE and anti-CD41a antibody-FITC (all antibodies were from Pharmingen Inc.).
Using flow cytometry fluoroscein-labeled sPIF-115 (SEQ ID NO: 13) binding to immune cells was examined on resting PBMC.

[2] = tested on: mice; experiment: Intravaginal administration twice daily for seven days in mated mice; type: in vivo; details: mice that conceived; implantation sites and viable embryos unaffected
Method: Female mice were mated with mice from the same strain. Subsequently, on day 0 (presumed day of mating) PIF-1scr in saline solution was administered intravaginally twice daily for seven days (Dr Alan Hoberman, Argus, Inc). The dose was 800 ug/day, 150 ug/ml or saline vehicle only (5 animals in each group). Subsequently, mice were sacrificed at day 12 of presumed gestation and Caesarean-sectioned. Corpora lutea, implantation sites and live and dead embryos were recorded.

[3] = tested on: PBMC; experiment: PIF and analogues on release of cytokines +/- platebound mAbCD3 (Table 4); type: cell-based; design: IL-1β / TNFa / IL-4 / IL-5 / IL-6 / IL-10 / GM-CSM / IFN-g: unit not given here; details: for effect on IL6 and 8: non-stimulated PBMC
[4] = tested on: donor lymphocytes and platelets; type: cell-based, human; details: flow cytometric determination; data not shown
Excerpt: The PIF assay, as disclosed in U.S. Pat. No. 5,646,003 to Barnea et al., entitled “Preimplantation Factor” issued Jul. 9, 1997, and in U.S. Pat. No. 5,981,198 to Barnea et al., entitled “Preimplantation Factor” granted Nov. 9, 1999, the disclosures of which are incorporated herein by reference in their entirety, may be used to measure the response of the immune system to pregnancy specific preimplantation factors. […] Lymphocyte-platelet rosettes result from the interaction of the T cell surface protein CD2 with its ligand CD58 expressed on the platelet membrane. Anti-CD2, by binding to the CD2 antigen on the T cells, inhibits their interaction with platelets.
as §1

[5] = tested on: β-3 integrin; experiment: β-3 integrin expression by human endometrial epithelial cells (flow cytometry, immunocytochemistry); type: cell-based; details: hEEC, 2-day culture, 1-500 nM
Method: Human endometrial tissues were digested and stromal and epithelial cells (hEEC) isolated and cultured with a fetal bovine serum (FBS)-enriched medium until confluent layers were obtained. After that the cells were cultured for two more days in a FBS free-medium followed by a further 2-day culture in the same medium containing PIF peptides (1-500 nM).
(§2) In addition, to compare the recovery of β-3 integrin expression with PIF effects described after cultured hEEC in a free-fetal bovine serum (FBS) medium some cells were cultured again in FBS-medium. […] PIF binding to epithelial cells was also examined. Binding was examined using MaBCD2 staining.

[6] = tested on: epithelial cells; experiment: PIF binding to endometrial epithelial cells (MaBCD2 staining); design: species or system human; details: compared to non-relevant IgG
Method: as §2

[7] = tested on: CD2; experiment: CD2 expression in PBMC (flow cytometry, CD2MAb-FITC); type: cell-based; details: PBMC exposed 3 days
[8] = tested on: CD3; experiment: CD3 expression in PBMC (flow cytometry, MAbCD3-PE); type: cell-based; details: PBMC exposed 3 days, 2-200 nM
Method: Fluorescent PIF peptides bind to immune cell membranes following activation. […] CD69 is expressed during activation of lymphocytes and monocytes, and is a marker of NK cells activation. CD25 is the receptor for IL-2, and a known activation marker as well. […] The expression of CD3 in PBMC was examined following exposure for 3 days to sPIF-1(15) (SEQ ID NO:13) (2-200 nM) using 20 ul MAbCD3-PE (BD).

[9] = tested on: PBMC; experiment: Time-dependent cytokine secretion by PBMC (Table 3); type: cell-based, human; details: substance alone
Method: Detailed time dependent and multiple controls were used the secretion of several cytokines by PBMC (IL-2, IL-5, IL-8, GM-CSF, IL-4, IL-10, TNF-α, IFN-γβ, IL-1 and IL-6) were measured. […] By 4 hours, sPIF-1 blocked TNF alpha with recovery by 24 hours. Also INFgamma secretion initiated only after 48 hours. […] Effects on cytokines was already noted at 0.7 nM. Similar effects were found also with other mitogens LPS and PHA when PIF-1 was tested.

[10] = tested on: PBMC; experiment: PIF-1 effects on cytokine expression in patient and control PBMC (Table 7); type: cell-based, human; details: PHA +, PIF-115 −

## GMRELQRSANK [negPIF-1(15), reference compound]
[1]
  labeling of T cell-platelet rosettes by FITC-labeled peptide: not labeled

## GRVDPSNKSMPKDIA [scrPIF-115, GRVDPSNKSMPKDIA]
[2]
  toxic or teratogenic effects: No toxic or teratogenic effects

## MVRIK [sPIF-1(5)]
[3]; C- (platebound mAbCD3), /1
  GM-CSM: 26.8
  IFN-g: 98.2
  IL-1β: 10.7
  IL-2: 19.2
  IL-4: 16.93
  IL-5: 0
  IL-6: 221.8
  IL-8: >5000
  IL-10: 68.5
  TNFa: 142.8
[3]; C- (platebound mAbCD3), /50
  GM-CSM: 20.7
  IFN-g: 81.2
  IL-1β: 5.3
  IL-2: 20.0
  IL-4: 0
  IL-5: 0
  IL-6: 178.9
  IL-8: >5000
  IL-10: 57.2
  TNFa: 81.1
[3]; U- (no mAbCD3), /1
  GM-CSM: 0
  IFN-g: 0
  IL-1β: 0
  IL-2: 0
  IL-4: 0
  IL-5: 0
  IL-6: 28.9
  IL-8: 763.6
  IL-10: 0
  TNFa: 0
[3]; U- (no mAbCD3), /50
  GM-CSM: 0
  IFN-g: 0
  IL-1β: 0
  IL-2: 0
  IL-4: 0
  IL-5: 0
  IL-6: 37.6
  IL-8: 786.4
  IL-10: 0
  TNFa: 0
[3]; following exposure to CD3Mab, dose dependent
  effect on cytokine secretion: mild

## MVRIKPGSA [sPIF-1(9)]
[4]
  increase in the number of rosettes in the presence of the anti-CD2 antibody: four-fold increase
[5]
  increase in the expression of β-3-epithelial integrin: up to a four-fold increase
[3]; C- (platebound mAbCD3), /1
  GM-CSM: 14.3
  IFN-g: 86.5
  IL-1β: 4.8
  IL-2: 26.4
  IL-4: 0
  IL-5: 0
  IL-6: 177.6
  IL-8: >5000
  IL-10: 49.0
  TNFa: 60.1
[3]; C- (platebound mAbCD3), /50
  GM-CSM: 25.3
  IFN-g: 132.1
  IL-1β: 7.8
  IL-2: 33.7
  IL-4: 18.16
  IL-5: 0
  IL-6: 249.4
  IL-8: >5000
  IL-10: 105.0
  TNFa: 160.8
[3]; U- (no mAbCD3), /1
  GM-CSM: 0
  IFN-g: 0
  IL-1β: 0
  IL-2: 0
  IL-4: 0
  IL-5: 0
  IL-6: 40.8
  IL-8: 772.46
  IL-10: 0
  TNFa: 0
[3]; U- (no mAbCD3), /50
  GM-CSM: 0
  IFN-g: 0
  IL-1β: 0
  IL-2: 13.1
  IL-4: 0
  IL-5: 0
  IL-6: 38.7
  IL-8: 1480.2
  IL-10: 0
  TNFa: 0
[3]
  effect on IL6 and 8: stimulatory effect
[6]
  binding to epithelial cells: highest binding

## PGSA [sPIF-1(4)]
[3]; C- (platebound mAbCD3), /1
  GM-CSM: 13.7
  IFN-g: 81.3
  IL-1β: 6.0
  IL-2: 24.0
  IL-4: 0
  IL-5: 0
  IL-6: 233.6
  IL-8: >5000
  IL-10: 44.1
  TNFa: 68.3
[3]; C- (platebound mAbCD3), /50
  GM-CSM: 27.3
  IFN-g: 145.4
  IL-1β: 7.3
  IL-2: 36.2
  IL-4: 17.8
  IL-5: 8.6
  IL-6: 270.1
  IL-8: >5000
  IL-10: 82.5
  TNFa: 299.9
[3]; U- (no mAbCD3), /1
  GM-CSM: 0
  IFN-g: 0
  IL-1β: 0
  IL-2: 0
  IL-4: 0
  IL-5: 0
  IL-6: 32.9
  IL-8: 809.3
  IL-10: 0
  TNFa: 0
[3]; U- (no mAbCD3), /50
  GM-CSM: 0
  IFN-g: 0
  IL-1β: 0
  IL-2: 0
  IL-4: 0
  IL-5: 0
  IL-6: 33.4
  IL-8: 1079.9
  IL-10: 0
  TNFa: 0
[3]
  effect on IL6 and 8: stimulatory effect

## SGIVIYQYMDDRYVGSDL [sPIF-3(18)]
[6]
  binding to epithelial cells: mild

## SQAVQEHASTNMG [sPIF-2(13)]
[7]
  increase in CD2 expression: 125-160%
[8]
  increase in CD3 receptor expression: 180-230%
[5]
  increase in the expression of β-3-epithelial integrin: up to a four-fold increase
[6]
  binding to epithelial cells: mild

## phytohemmaglutinin [PHA, reference compound]
[9]; 4 h post induction
  GM-CSF: 60.4 pg/mL
  IFN-y: 0 pg/mL
  IL-1β: 891.2 pg/mL
  IL-2: 28.7 pg/mL
  IL-4: 0 pg/mL
  IL-5: 0 pg/mL
  IL-6: 7045.0 pg/mL
  IL-8: 0 pg/mL
  IL-10: 13.3 pg/mL
  TNF-α: 18829.1 pg/mL
[9]; 24 h post induction
  GM-CSF: 60.0 pg/mL
  IFN-y: 1728.8 pg/mL
  IL-1β: 5010.5 pg/mL
  IL-2: 2800.6 pg/mL
  IL-4: 60.0 pg/mL
  IL-5: 125.0 pg/mL
  IL-6: >5200 pg/mL
  IL-8: >6330 pg/mL
  IL-10: 1411.5 pg/mL
  TNF-α: >11390 pg/mL
[9]; 48 h post induction
  GM-CSF: 0 pg/mL
  IFN-y: 0 pg/mL
  IL-1β: 0 pg/mL
  IL-2: 0 pg/mL
  IL-4: 0 pg/mL
  IL-5: 0 pg/mL
  IL-6: 0 pg/mL
  IL-8: 5634.0 pg/mL
  IL-10: 0 pg/mL
  TNF-α: 0 pg/mL
[9]; 96 h post induction
  GM-CSF: 0 pg/mL
  IFN-y: 0 pg/mL
  IL-1β: 0 pg/mL
  IL-2: 0 pg/mL
  IL-4: 0 pg/mL
  IL-5: 0 pg/mL
  IL-6: 0 pg/mL
  IL-8: >6330 pg/mL
  IL-10: 0 pg/mL
  TNF-α: 0 pg/mL
[10]; control
  IL-10: 25.72 % of total PBMC in scatter gate
  TH1/TH2: 0.68
  TNFα: 17.43 % of total PBMC in scatter gate
[10]; patient
  IL-10: 24.76 % of total PBMC in scatter gate
  TH1/TH2: 0.57
  TNFα: 14.23 % of total PBMC in scatter gate
